According to patent US11369615B2, “Agent for improving mitochondrial dysfunction, preventative or therapeutic agent for diseases or symptoms caused by mitochondrial dysfunction, and applications therefor” (JICHI MEDICAL UNIVERSITY, priority 2017, dated 2022):
Where a name gives a salt, the structure may show the parent alone.

Key:
[1] = stated as known; cited from earlier work
[2] = test system: KCMC10 cells derived from a patient with Leigh syndrome; test: Oxidative stress test (BSO-induced cell death), KCMC10 cells; type: cell-based, human; details: BSO plus agent 1 μM, 48 hours after addition
From the text: (§1) In mitochondrial dysfunction, for example, ATP production is damaged and/or oxidative stress increases, with the result that apoptosis of cells is induced. Because of this, individuals having mitochondrial dysfunction are reported to be less tolerant to oxidative stress, compared to normal individuals (Shrader W D et al., Bioorg Med Chem Lett., Jun. 15, 2011, Vol. 21 (12), p. 3693-8, doi: 10.1016/j.bmc1.2011.04.085. electronically published on Apr. 24, 2011, PubMed PMID: 21600768). Then, oxidative stress was given to the skin fibroblasts of individual patients mentioned above to induce apoptosis. Under the conditions, compounds of the drug library were each administered to the cells. In this manner, a primary screening was carried out. Then, candidate pharmaceutical agents selected by the primary screening were subjected to a secondary screening, which is an in-vitro evaluation test such as a mitochondrial function evaluation test and a microarray expression analysis.
(§2) The oxidative stress test is a known pharmaceutical agent screening method, which was carried out under the conditions where cell death was induced by addition of L-buthionine-(S,R)-sulfoximine (BSO) (Arce P M et al., ACS Med Chem Lett., May 31, 2011, Vol. 2 (8), p. 608-13, doi: 10.1021/m1200095w. eCollection, Aug. 11, 2011, PubMed PMID: 24900356; PubMed Central PMCID: PMC4018135). BSO inhibits synthesis of glutathione serving as an antioxidant in the cells to deplete glutathione, raising the level of active oxygen within the cells. The procedure of the test is as follows. The cells to be used in the test were seeded in a 96-well plate for cell culture so as to satisfy a concentration of 5,000 cells/well and 80 μL medium/well and cultured in a CO2 incubator (37° C., 5% CO2) for 24 hours. Twenty four hours after the culture, BSO and each of the pharmaceutical agents (final concentration of 1 μM) of the drug library were together added to the cells within the wells. Forty eight hours after the addition, survival rates were determined. The survival rates were determined by measuring absorbance of formazan generated by use of cell count reagent SF (Nacalai Tesque, Inc.). As a positive control compound, idebenone (Non Patent Literature 1) approved as a therapeutic agent for Leber's hereditary optic neuritis in Europe, was used in the same concentration.
(§3) An oxidative stress test was carried out by using three fibroblast cell lines derived from patients with a mitochondrial disease and provided in 1-2. The pharmaceutical agent showing the survival rate equal to or more than that of idebenone, a positive control compound, was determined to be effective. The results of oxidative stress test of pharmaceutical agents of the drug library to KCMC10 cells are shown in FIG. 2; the results of oxidative stress test of pharmaceutical agents of the drug library to ME54 cells are shown in FIG. 3; and the results of oxidative stress test of pharmaceutical agents of the drug library to ME110 cells are shown in FIG. 4.

[3] = test system: ME54 cells derived from a patient with Leigh syndrome; test: Oxidative stress test (BSO-induced cell death), ME54 cells; type: cell-based, human; details: BSO plus agent 1 μM, 48 hours after addition
From the text: as §1, §2, §3

[4] = test system: ME110 cells derived from a patient with MELAS; test: Oxidative stress test (BSO-induced cell death), ME110 cells; type: cell-based, human; details: BSO plus agent 1 μM, 48 hours after addition
From the text: as §1, §2, §3

Row | SMILES | ability to pass through the blood-brain barrier [1] | survival rate equal to or more than that of idebenone (determined to be effective) [2] | survival rate equal to or more than that of idebenone (determined to be effective) [3] | survival rate equal to or more than that of idebenone (determined to be effective) [4]
1 | CN1CC2c3ccccc3Oc3ccc(Cl)cc3C2C1 (stereo not drawn) [(I-2)] | known to be able to pass through the blood-brain barrier | – | – | –
2 | CN1C[C@@H]2c3ccccc3Oc3ccc(Cl)cc3[C@H]2C1 [Pharmaceutical agent No. 105, Asenapine maleate] | known to be able to pass through the blood-brain barrier | effective | effective | effective
3 | CN1CCN(CCCN2c3ccccc3Sc3ccc(Cl)cc32)CC1 [Pharmaceutical agent No. 35, Prochlorperazine dimaleate] | known to be able to pass through the blood-brain barrier | effective | effective | effective
4 | CN(C)CCCN1c2ccccc2Sc2ccccc21 [Pharmaceutical agent No. 56, Promazine hydrochloride] | known to be able to pass through the blood-brain barrier | effective | effective | effective
5 | Cc1cc2c(s1)Nc1ccccc1N=C2N1CCN(C)CC1 [Pharmaceutical agent No. 118, Olanzapine] | – | effective | effective | effective
6 | c1ccc2c(c1)Nc1ccccc1S2 [Pharmaceutical agent No. 129, Phenothiazine] | known to be able to pass through the blood-brain barrier | effective | effective | effective
7 | CN1CCc2cccc3c2C1Cc1ccc(O)c(O)c1-3 (stereo not drawn) [(I-1)] | known to be able to pass through the blood-brain barrier | – | – | –
